Experimental data taken from patent US9062051B2, “Compounds and pharmaceutical compositions thereof for the treatment of proliferative disorders” (GALAPAGOS NV, priority 2014, dated 2015).

What was measured:
EphA2 = biological target: T1, EphA2 (UniProt Ref: P29317) (Homo sapiens, UniProt P29317); test: EphA2 assay (Reaction Biology HotSpot radioactive kinase assay); format: biochemical; conditions: ATP 10 μM; read-out: EphA2 potency IC50
T1 construct: purchased Reaction Biology
Method: Inhibition of EphA2 (UniProt Ref: P29317) by a test compound is determined by a commercially available Reaction Biology proprietary nanoliter radioactive HotSpot^SM assay (Reaction Biology, One great valley parkway, Suite 2, Malvern Pa., 19355, USA). The principle of the assay consists of the measurement of incorporated ^33P into poly[Glu:Tyr] (4:1) (0.2 mg/mL) when the substrate is phosphorylated by the enzyme using [^33P]-γ-ATP and ATP (10 μM).
To determine the IC50, a serial dilution of compound is tested starting from 10, or 3 μM (highest dilution) with a 1/3 dilution.

Recombinant EphA7 = biological target: T2, Recombinant EphA7 (Homo sapiens, UniProt Q15375); test: EphA7 assay (33P incorporation into poly GT, filter plate); format: biochemical; conditions: EphA7 potency; 0.15 μM ATP; read-out: IC50
T2 construct: purchased Carna 08-126
T2 sequence (Q15375 579-998 limits assumed): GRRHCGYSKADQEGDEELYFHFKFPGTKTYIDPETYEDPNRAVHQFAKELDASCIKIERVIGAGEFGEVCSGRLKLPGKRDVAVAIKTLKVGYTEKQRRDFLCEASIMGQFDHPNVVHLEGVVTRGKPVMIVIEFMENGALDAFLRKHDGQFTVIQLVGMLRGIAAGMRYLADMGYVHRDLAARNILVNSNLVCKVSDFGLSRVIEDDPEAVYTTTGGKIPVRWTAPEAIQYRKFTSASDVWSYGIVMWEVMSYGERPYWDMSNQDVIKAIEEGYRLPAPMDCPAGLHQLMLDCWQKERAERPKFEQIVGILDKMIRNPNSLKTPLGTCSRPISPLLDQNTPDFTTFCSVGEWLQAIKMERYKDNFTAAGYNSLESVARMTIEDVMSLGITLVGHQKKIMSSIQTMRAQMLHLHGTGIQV
Method: The principle of the assay consists of the measurement of incorporated ^33P into the substrate poly GT when phosphorylated by the enzyme EphA7 using [^33P]-γ-ATP and ATP. Unincorporated ^33P is removed by loading the samples on a filter plate (using a harvester, Perkin Elmer) and 6 subsequent washing steps. ^33P incorporated in polyGT is measured on a Topcount after addition of microscint to the filter plates (Perkin Elmer).
Recombinant EphA7 (Carna Cat#08-126, 2 ng per well) was incubated with 0.1 mg/mL Poly(Glu,Tyr)sodium salt (4:1), MW 20 000-50 000 (Sigma catalog number P0275) in kinase reaction buffer (10 mM MOPS pH 7.2, 5 mM DTT, 0.01% Triton-X100, 5 mM MnCl2, 0.5 mM Na3VO4, 5 mM beta-glycerolphosphate), 0.15 μM non-radioactive ATP, 0.125 μCi/25 μl ^33P-gamma-ATP (Perkin Elmer, catalog number NEG602K) final concentrations with or without 5 μL containing test compound or vehicle (DMSO, 1% final concentration), in a total volume of 25 μL, in a polypropylene 96-well plate (Greiner, V-bottom). After 90 min at 30° C., reactions were stopped by adding of 25 μL/well of 150 mM phosphoric acid. All of the terminated kinase reaction was transferred to prewashed (75 mM phosphoric acid) 96 well filter plates (Perkin Elmer catalog number 6005177) using a cell harvester (Perkin Elmer). Plates were washed 6 times with 300 μL per well of a 75 mM phosphoric acid solution and the bottom of the plates was sealed. 40 μL/well of Microscint-20 was added, the top of the plates was sealed and readout was performed using the Topcount (Perkin Elmer). The ability of a test compound to inhibit the kinase activity was determined using counts per minutes (cpm) measured by the Topcount as:
Cpm (cpd): cpm determined for sample with test compound present
Cpm (control): cpm determined for sample with positive control inhibitor (10 μM staurosporine)
Cpm (vehicle): cpm determined in the presence of vehicle (1% DMSO)
Dose dilution series were prepared for the compounds enabling the testing of dose-response effects in the EphA7 assay and the calculation of the IC50 for each compound. Each compound was routinely tested at concentration of 20 μM followed by a 1/5 serial dilution, 10 points in a final concentration of 1% DMSO. When potency of compound series increased, more dilutions may be prepared and/or the top concentration may be lowered (e.g. 5 μM, 1 μM).

T1 sequence (P29317 24-976): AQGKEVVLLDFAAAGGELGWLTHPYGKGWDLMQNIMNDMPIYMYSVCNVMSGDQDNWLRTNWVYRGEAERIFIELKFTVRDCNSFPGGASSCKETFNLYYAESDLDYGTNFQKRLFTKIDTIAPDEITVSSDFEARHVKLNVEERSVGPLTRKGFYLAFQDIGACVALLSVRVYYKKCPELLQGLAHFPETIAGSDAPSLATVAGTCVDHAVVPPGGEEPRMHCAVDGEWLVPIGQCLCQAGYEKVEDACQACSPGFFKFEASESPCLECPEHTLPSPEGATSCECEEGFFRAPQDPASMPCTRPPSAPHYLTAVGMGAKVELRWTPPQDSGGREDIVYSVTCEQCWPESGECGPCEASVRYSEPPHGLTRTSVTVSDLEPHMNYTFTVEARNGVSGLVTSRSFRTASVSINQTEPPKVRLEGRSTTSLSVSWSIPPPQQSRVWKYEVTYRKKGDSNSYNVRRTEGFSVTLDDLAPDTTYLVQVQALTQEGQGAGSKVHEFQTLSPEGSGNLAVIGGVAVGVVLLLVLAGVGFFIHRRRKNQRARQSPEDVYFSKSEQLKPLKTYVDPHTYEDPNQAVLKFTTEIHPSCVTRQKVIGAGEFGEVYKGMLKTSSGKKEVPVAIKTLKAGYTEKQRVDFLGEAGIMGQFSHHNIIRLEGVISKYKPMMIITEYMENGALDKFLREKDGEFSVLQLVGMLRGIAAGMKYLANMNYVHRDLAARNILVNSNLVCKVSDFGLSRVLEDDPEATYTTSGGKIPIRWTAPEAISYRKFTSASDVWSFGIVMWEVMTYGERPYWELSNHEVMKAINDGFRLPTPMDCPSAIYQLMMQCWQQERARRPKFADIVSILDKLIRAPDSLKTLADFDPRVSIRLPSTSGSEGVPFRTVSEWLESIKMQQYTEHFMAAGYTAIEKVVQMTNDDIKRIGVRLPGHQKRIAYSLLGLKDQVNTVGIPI

Compound | IC50 (EphA2) [nM] | IC50 (Recombinant EphA7) [nM]
CCc1n[nH]c2nc(-c3cc(NC(=O)c4cc(N(C)C)cc(C(F)(F)F)c4)ccc3C)ccc12 [Compound 26, 3-Dimethylamino-N-[3-(3-ethyl-1H-pyrazolo[3,4-b]pyridin-6-yl)-4-methyl-phenyl]-5-trifluoromethyl-benzamide] | 50 to 100 | 
CCc1ccc(NC(=O)c2cc(OC)cc(OC)c2)cc1-c1ccc2c(CC)n[nH]c2n1 [Compound 32, N-[4-Ethyl-3-(3-ethyl-1H-pyrazolo[3,4-b]pyridin-6-yl)-phenyl]-3,5-dimethoxy-benzamide] | 50 to 100 | 
CCc1n[nH]c2nc(-c3cc(NC(=O)c4cc(OC)cc(C(F)(F)F)c4)ccc3C)ccc12 [Compound 33, N-[3-(3-Ethyl-1H-pyrazolo[3,4-b]pyridin-6-yl)-4-methyl-phenyl]-3-methoxy-5-trifluoromethyl-benzamide] | 0.01 to 25 | 
CCc1n[nH]c2nc(-c3cc(NC(=O)c4cc(OC)cc(OCCN5CCOCC5)c4)ccc3C)ccc12 [Compound 41, N-[3-(3-Ethyl-1H-pyrazolo[3,4-b]pyridin-6-yl)-4-methyl-phenyl]-3-methoxy-5-(2-morpholin-4-yl-ethoxy)-benzamide] | 0.01 to 25 | 
CCc1n[nH]c2nc(-c3cc(NC(=O)c4cc(OC)cc(OCCN)c4)cnc3C)ccc12 [Compound 44, 3-(2-Amino-ethoxy)-N-[5-(3-ethyl-1H-pyrazolo[3,4-b]pyridin-6-yl)-6-methyl-pyridin-3-yl]-5-methoxy-benzamide] | 50 to 100 | 
COc1cc(OC)cc(C(=O)Nc2ccc(C)c(-c3ccc4c([C@@H](C)O)n[nH]c4n3)c2)c1 [Compound 48, N-{3-[3-((R)-1-Hydroxy-ethyl)-1H-pyrazolo[3,4-b]pyridin-6-yl]-4-methyl-phenyl}-3,5-dimethoxy-benzamide] | 25 to 50 | 
CCc1n[nH]c2nc(-c3cc(NC(=O)c4cc(OC)cc(C5CC5)c4)ccc3C)ccc12 [Compound 51, 3-Cyclopropyl-N-[3-(3-ethyl-1H-pyrazolo[3,4-b]pyridin-6-yl)-4-methyl-phenyl]-5-methoxy-benzamide] | 0.01 to 25 | 
Cc1cc(C)cc(C(=O)Nc2cnc(C)c(-c3ccc4c(C)n[nH]c4n3)c2)c1 [Compound 52, 3,5-Dimethyl-N-[6-methyl-5-(3-methyl-1H-pyrazolo[3,4-b]pyridin-6-yl)-pyridin-3-yl]-benzamide] | 0.01 to 25 | 
Cc1ncc(NC(=O)c2cccc(C(F)(F)F)c2)cc1-c1ccc2c(C)n[nH]c2n1 [Compound 53, N-[6-Methyl-5-(3-methyl-1H-pyrazolo[3,4-b]pyridin-6-yl)-pyridin-3-yl]-3-trifluoromethyl-benzamide] | 0.01 to 25 | 
Cc1cc(C)cc(C(=O)Nc2ccc(C)c(-c3ccc4c(C(C)O)n[nH]c4n3)c2)c1 (stereo not drawn) [Compound 54, N-{3-[3-(1-Hydroxy-ethyl)-1H-pyrazolo[3,4-b]pyridin-6-yl]-4-methyl-phenyl}-3,5-dimethyl-benzamide] | 0.01 to 25 | 

The remaining lines, values ahead:

IC50 (EphA2) [nM] | IC50 (Recombinant EphA7) [nM] | Compound
0.01 to 25 |  | Cc1ccc(NC(=O)c2cccc(C(F)(F)F)c2)cc1-c1ccc2c(CO)n[nH]c2n1 [Compound 1, N-(3-(3-(hydroxymethyl)-1H-pyrazolo[3,4-b]pyridin-6-yl)-4-methylphenyl)-3-(trifluoromethyl)benzamide]
0.01 to 25 |  | CCc1n[nH]c2nc(-c3cc(NC(=O)c4cc(C)cc(OC)c4)ccc3C)ccc12 [Compound 19, N-[3-(3-Ethyl-1H-pyrazolo[3,4-b]pyridin-6-yl)-4-methyl-phenyl]-3-methoxy-5-methyl-benzamide]
25 to 50 |  | CCc1n[nH]c2nc(-c3cc(NC(=O)c4cc(OC)cc(OC)c4)ccc3Cl)ccc12 [Compound 22, N-[4-Chloro-3-(3-ethyl-1H-pyrazolo[3,4-b]pyridin-6-yl)-phenyl]-3,5-dimethoxy-benzamide]
0.01 to 25 |  | CCc1n[nH]c2nc(-c3cc(NC(=O)c4cc(C)cc(OCCO)c4)ccc3C)ccc12 [Compound 23, N-[3-(3-Ethyl-1H-pyrazolo[3,4-b]pyridin-6-yl)-4-methyl-phenyl]-3-(2-hydroxy-ethoxy)-5-methyl-benzamide]
0.01 to 25 |  | CCc1n[nH]c2nc(-c3cc(NC(=O)c4cc(C)cc(OCCN(C)C)c4)ccc3C)ccc12 [Compound 25, 3-(2-Dimethylamino-ethoxy)-N-[3-(3-ethyl-1H-pyrazolo[3,4-b]pyridin-6-yl)-4-methyl-phenyl]-5-methyl-benzamide]
0.01 to 25 |  | CCc1n[nH]c2nc(-c3cc(NC(=O)c4cc(OC)cc(OCCN)c4)ccc3C)ccc12 [Compound 39, 3-(2-amino-ethoxy)-N-[3-(3-ethyl-1H-pyrazolo[3,4-b]pyrin-6-yl)-4-methylphenyl]-5-methoxybenzamide]
0.01 to 25 | 0.01 to 250 | CCc1n[nH]c2nc(-c3cc(NC(=O)c4cc(OCCN5CCOCC5)cc(C5CC5)c4)cnc3C)ccc12 [Compound 43, 3-Cyclopropyl-N-[5-(3-ethyl-1H-pyrazolo[3,4-b]pyridin-6-yl)-6-methyl-pyridin-3-yl]-5-(2-morpholin-4-yl-ethoxy)-benzamide]
